According to US6762174B1 (priority 1998, dated 2004):
Values joined by “and” are separate entries in the source; they are usually repeats but may differ in a detail not shown here. Equal entries are not always repeated. Where two headings read alike, the source gives them in different places.

Experiments:
[1] = system: MOPC-315 myeloma; experiment: MOPC-315 Myeloma study #5: Melphalan + β-alethine ip day 9 (1 × 10^6 tumor cells); conditions: for Tumor Size: 1.25 mg/kg mp; for Animals Surviving: mp 1.25 mg/kg
[2] = system: MOPC-315 myeloma; experiment: MOPC-315 Myeloma study #6: β-alethine ip day 9, 10 or 11, mp ip day 10 (1 × 10^6 tumor cells); conditions: for Animals Surviving: mp 1.25 mg/kg d 10 alone (20 mice)
[3] = system: MOPC-315 myeloma; experiment: MOPC-315 Myeloma study #4: Melphalan + β-alethine ip day 10 (1 × 10^6 tumor cells); conditions: for Animals Surviving: mp 1.25 mg/kg; for Mean Tumor Size: mp alone
[4] = system: anti-Pn14 antibodies (Pn14-Tetanus Toxin antigen); design: species or system BALB/c female mice; conditions: mouse, in vivo
[5] = system: human hematopoietic progenitor cells (CD34+ cells); experiment: Blood cell stimulation: CD34+ suspension culture, lineage marker ELISA; format: cell-based; conditions: Study 1: 1 ng/ml compound
Experimental: A 96-well-based suspension culture system (Warren et al, Stem Cells 13:167 (1995) for human hematopoietic progenitor cells was used to monitor the commitment and differentiation of CD34+ cells in vitro. Expression of maturation and lineage markers on the cells in culture were measured by ELISA. […] A combination of growth factors was added that stimulates the expression of the appropriate lineage markers. The culture consisted of: IMDM plus 15% FBS, 0.5 ng/ml IL-3, 20 ng/ml SCF, 1 unit/ml EPO, 1 ng/ml GCSF and the indicated concentrations of test compounds. The cells were then fixed with a glutaraldehyde-paraformaldehyde mixture, attaching the cells firmly to the plastic. An ELISA was performed (Warren et al, Stem Cells 13:167 (1995)), using appropriate primary antibodies directed against cell surface markers. The expression of three different lineage markers was measured: CD14 (monocyte), CD15 (neutrophil), and glycophorin A (erythroid).

[6] = Paclitaxel toxicity, first study: body weight and mortality; format: in vivo, female non-tumor-bearing athymic (NCr-nu) mice; conditions: BT 0 mg
Experimental: The effect of combining BT with paclitaxel (PAC, or TAXOL™) on the toxicity of paclitaxel was investigated. In a first study, groups of 10 female non-tumor-bearing athymic (NCr-nu) mice were administered paclitaxel i.v. at doses of 50 and 30 mg/kg/dose on a qld×5 schedule, which means once each day for five days. Paclitaxel (PAC) was in 12.5% cremophor/12.5% ethanol/75% saline alone, or in combination with 30 mg/kg BT (first dissolved in saline) and delivered as a single i.v. injection (0.1 cc/10 gm body weight). BT was also administered on a qld×5 schedule. Body weights were measured twice a week and survival data was recorded daily. The study was terminated on day 21.
Weight loss values reflect the lowest recorded weight, which was on day 7 for all groups. Importantly, there were fewer deaths when BT was coadministered with either 30 mg or 50 mg paclitaxel.
For the group receiving 50 mg paclitaxel, the survival difference was statistically significant (log rank=6.41, p=0.0113). There were 9 deaths on day 21 with 50 mg PAC alone, but only 2 deaths when 30 mg BT was administered with 50 mg PAC. When BT was coadministered with 30 mg PAC there was only 1 death on day 21, which was due not to toxicity, but to a technician error. By contrast, there were 2 toxic deaths with 30 mg PAC alone.

[7] = mp on day 10, BT none, 20 in group

Compound: N[C@@H](Cc1ccc(N(CCCl)CCCl)cc1)C(=O)O [mp, melphalan]
- Tumor Size ([1]; day 13): 20.4 mm
- Tumor Size ([1]; day 16): 19.2 mm
- Tumor Size ([1]; day 20): 17.0 mm
- Tumor Size ([1]; day 23): 10.2 mm
- Tumor Size ([1]; day 27): 0 mm
- Animals Surviving ([1]; day 10): 10
- Animals Surviving ([1]; day 11): 10
- Animals Surviving ([1]; day 12): 10
- Animals Surviving ([1]; day 13): 10
- Animals Surviving ([1]; day 14): 10
- Animals Surviving ([1]; day 15): 10
- Animals Surviving ([1]; day 16): 10
- Animals Surviving ([1]; day 17): 10
- Animals Surviving ([1]; day 18): 10
- Animals Surviving ([1]; day 19): 10
- Animals Surviving ([1]; day 20): 9
- Animals Surviving ([1]; day 21): 9
- Animals Surviving ([1]; day 22): 9
- Animals Surviving ([1]; day 23): 8
- Animals Surviving ([1]; day 25): 8
- Animals Surviving ([1]; day 26): 8
- Animals Surviving ([1]; day 28): 7
- Animals Surviving ([1]; day 29): 7
- Animals Surviving ([1]; day 31): 7
- Animals Surviving ([2]; test day 10): 20
- Animals Surviving ([2]; test day 11): 20
- Animals Surviving ([2]; test day 12): 20
- Animals Surviving ([2]; test day 13): 20
- Animals Surviving ([2]; test day 14): 20
- Animals Surviving ([2]; test day 15): 20
- Animals Surviving ([2]; test day 16): 19
- Animals Surviving ([2]; test day 17): 19
- Animals Surviving ([2]; test day 18): 19
- Animals Surviving ([2]; test day 19): 19
- Animals Surviving ([2]; test day 20): 19
- Animals Surviving ([2]; test day 21): 15
- Animals Surviving ([2]; test day 22): 9
- Animals Surviving ([2]; test day 23): 9
- Animals Surviving ([2]; test day 25): 7
- Animals Surviving ([2]; test day 26): 4
- Animals Surviving ([2]; test day 27): 3
- Animals Surviving ([2]; test day 29): 2
- Animals Surviving ([2]; test day 31): 2
- day 21 tumor size ([2]; mp on day 10, BT none): 25.8 mm
- day half are dead ([2]; mp on day 10, BT none): 22
- cures day 21 [2, 7]: 2
- deaths day 21 [2, 7]: 5
- cures day 21 ([2]; mp on day 10, BT none, 20 in group, listed as melphalan): 2/20
- day 21 tumor size ([2]; mp on day 10, BT none, listed as melphalan): 26 mm
- animals in ten cured ([3]; mp 1.25 mg/kg alone): one
- cure occurred, days after treatment began ([3]; mp 1.25 mg/kg alone): 19 days
- Animals Surviving ([3]; day 10): 10
- Animals Surviving ([3]; day 11): 8
- Animals Surviving ([3]; day 12): 5
- Animals Surviving ([3]; day 13): 4
- Animals Surviving ([3]; day 14): 3
- Animals Surviving ([3]; day 15): 3
- Animals Surviving ([3]; day 16): 3
- Animals Surviving ([3]; day 17): 3
- Animals Surviving ([3]; day 18): 3
- Animals Surviving ([3]; day 19): 3
- Animals Surviving ([3]; day 20): 3
- Animals Surviving ([3]; day 21): 3
- Animals Surviving ([3]; day 22): 3
- Animals Surviving ([3]; day 23): 3
- Animals Surviving ([3]; day 25): 3
- Animals Surviving ([3]; day 26): 3
- Animals Surviving ([3]; day 27): 3
- Animals Surviving ([3]; day 29): 3
- Animals Surviving ([3]; day 31): 1
- Mean Tumor Size ([3]; day 10): 22.5 mm
- Mean Tumor Size ([3]; day 14): 19 mm
- Mean Tumor Size ([3]; day 17): 17 mm
- Mean Tumor Size ([3]; day 21): 22 mm
- Mean Tumor Size ([3]; day 29): 28 mm

Compound: C[C@@H]1C[C@H]2[C@@H]3CCC4=CC(=O)C=C[C@]4(C)[C@@]3(F)[C@@H](O)C[C@]2(C)[C@@]1(O)C(=O)CO [DEX., dexamethasone]
- Percent Body Weight Loss From Day 0 (DEX.10 mg IP, day 1): 3.0%
- Percent Body Weight Loss From Day 0 (DEX.10 mg IP, day 5): 4.6%
- Percent Body Weight Loss From Day 0 (DEX.10 mg IP, day 6): 2.8%
- Percent Body Weight Loss From Day 0 (DEX.10 mg IP, day 7): 3.4%
- Percent Body Weight Loss From Day 0 (DEX.10 mg IP, day 8): 2.4%
- Percent Body Weight Loss From Day 0 (DEX.10 mg IP, day 9): 3.6%
- Percent Body Weight Loss From Day 0 (DEX.10 mg IP, day 10): 2.8%
- Percent Body Weight Loss From Day 0 (DEX.10 mg IP, day 11): 1.3%
- Percent Body Weight Loss From Day 0 (DEX.10 mg IP, day 12): 3.7%
- Percent Body Weight Loss From Day 0 (DEX.10 mg IP, day 13): 2.1%
- Percent Body Weight Loss From Day 0 (DEX.10 mg IP, day 21): 0.1%

Compound: NCCC(=O)NCCS(=O)(=O)O [Taurox-S, β-alanyl-taurine]
- Mean Change in O.D. from pre-boost 10 days after boost with UNCONJUGATED polysaccharide [4]: 204
- Mean Change in O.D. from pretest, Day 4 [4]: 2.9
- Mean Change in O.D. from pretest, Day 14 [4]: 697
- Mean Change in O.D. from pretest, Day 14 ([4]; ip): 681 and 671
- Percent difference (relative to control), monocytes [5]: 47%
- Percent difference (relative to control), neutrophils [5]: 55%
- Percent difference (relative to control), red blood cells [5]: 50%

Compound: CC(=O)O[C@H]1C(=O)[C@@]2(C)[C@H]([C@H](OC(=O)c3ccccc3)[C@]3(O)C[C@H](OC(=O)[C@H](O)[C@@H](NC(=O)c4ccccc4)c4ccccc4)C(C)=C1C3(C)C)[C@]1(OC(C)=O)CO[C@@H]1C[C@@H]2O [PAC, paclitaxel]
- deaths ([6]; PAC 30 mg, Day 1): 0
- mean weight ([6]; PAC 30 mg, Day 1): 19 gm
- % weight change ([6]; PAC 30 mg, Day 7): −26.3%
- deaths ([6]; PAC 30 mg, Day 7): 1
- mean weight ([6]; PAC 30 mg, Day 7): 14 gm
- % weight change ([6]; PAC 30 mg, Day 10): −21.1%
- deaths ([6]; PAC 30 mg, Day 10): 2
- mean weight ([6]; PAC 30 mg, Day 10): 15 gm
- % weight change ([6]; PAC 30 mg, Day 14): −5.3%
- deaths ([6]; PAC 30 mg, Day 14): 2
- mean weight ([6]; PAC 30 mg, Day 14): 18 gm
- % weight change ([6]; PAC 30 mg, Day 21): +21.1%
- deaths ([6]; PAC 30 mg, Day 21): 2
- mean weight ([6]; PAC 30 mg, Day 21): 23 gm
- deaths (cummul.) ([6]; PAC 50 mg, Day 1): 0
- mean weight ([6]; PAC 50 mg, Day 1): 19 gm
- % weight change ([6]; PAC 50 mg, Day 7): −31.6%
- deaths (cummul.) ([6]; PAC 50 mg, Day 7): 1
- mean weight ([6]; PAC 50 mg, Day 7): 13 gm
- % weight change ([6]; PAC 50 mg, Day 10): −36.8%
- deaths (cummul.) ([6]; PAC 50 mg, Day 10): 9
- mean weight ([6]; PAC 50 mg, Day 10): 12 gm
- % weight change ([6]; PAC 50 mg, Day 14): −26.3%
- deaths (cummul.) ([6]; PAC 50 mg, Day 14): 9
- mean weight ([6]; PAC 50 mg, Day 14): 14 gm
- % weight change ([6]; PAC 50 mg, Day 21): +10.5%
- deaths (cummul.) ([6]; PAC 50 mg, Day 21): 9
- mean weight ([6]; PAC 50 mg, Day 21): 21 gm
- Percent Body Weight Loss From Day 0 (Taxol 40 mg/kg IV, day 1): 3.8%
- Percent Body Weight Loss From Day 0 (Taxol 40 mg/kg IV, day 5): 10.7%
- Percent Body Weight Loss From Day 0 (Taxol 40 mg/kg IV, day 6): 11.0%
- Percent Body Weight Loss From Day 0 (Taxol 40 mg/kg IV, day 7): 15.2%
- Percent Body Weight Loss From Day 0 (Taxol 40 mg/kg IV, day 8): 17.2%
- Percent Body Weight Loss From Day 0 (Taxol 40 mg/kg IV, day 9): 17.5%
- Percent Body Weight Loss From Day 0 (Taxol 40 mg/kg IV, day 10): 14.6%
- Percent Body Weight Loss From Day 0 (Taxol 40 mg/kg IV, day 11): 11.8%
- Percent Body Weight Loss From Day 0 (Taxol 40 mg/kg IV, day 12): 10.4%
- Percent Body Weight Loss From Day 0 (Taxol 40 mg/kg IV, day 13): 7.8%
- Percent Body Weight Loss From Day 0 (Taxol 40 mg/kg IV, day 21): −1.2%
